We go through 41 compounds from PubChem BioAssay AID540271 (Broad Institute, 2011).

By AC50 is commonly meant the concentration at which the activity in the assay is half-maximal.

Active and inactive are the calls of the source. No rule for the calls is given here.

The assay has as its system S. cerevisiae expressing PfHSP40, growth rescue, plate reader. Kind of assay: Yeast growth rescue from Plasmodium falciparum HSP40 toxicity, dose response confirmatory, plate reader (AID 540271).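 Also: yeast growth read after three days of incubation at 30 °C.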
On to `CN(C)c1ccc(C=c2c3ccccc3n3c2c2c([n+]3C)CCCC2)cc1`, for which the AC50 was 2.64 µM.
In the case of `Cc1ccoc1C(=O)Nc1cccc(Oc2ccccc2)c1`, the AC50 was 2.85 µM.
Turning to `Cc1ccc(C(=O)Sc2cccccc2=O)cc1`, the AC50 is 0.295 µM.
Take `O=S(=O)(Nc1ccccc1)c1ccc(Oc2ncc(C(F)(F)F)cc2Cl)cc1`: the AC50 was 6.09 µM.
Consider `C(=C1c2ccccc2-c2ccccc21)c1ccncc1`, for which the AC50 was 6.18 µM.
Consider `Oc1c(C(Nc2cccc(C(F)(F)F)c2)c2ccncc2)ccc2cccnc12` (stereo unspecified), for which the AC50 is 1.92 µM.
`Cc1ccc(-n2nnnc2C(Cl)c2nnnn2-c2ccc(C)cc2)cc1`: the AC50 is 3.4 µM.
The figure for `COc1cc(NC(=O)CSc2ccc(-c3ccccn3)nn2)cc(OC)c1` is 1.59 µM; for `O=c1c(O)c(-c2ccccc2)oc2ccccc12` it is 5.37 µM.
For `CCc1ccccc1OCC(=O)Nc1nc(-c2cccnc2)cs1`, the AC50 was 1.84 µM.
Turning to `COc1cccc2c1C(=O)c1c(O)c3c(c(O)c1C2=O)CC(O)(C(C)=O)CC3OC1CC(N(C)C)C(O)C(C)O1` (stereo unspecified), the AC50 was 1.41 µM.
`C[C@@]12C(=O)Nc3ccc(F)cc3C(=O)N1[C@H]1c3ccccc3OC[C@@H]1[C@@H]2c1ccccc1`: the AC50 was 8.46 µM.
Take `COc1cc(C(=O)ON=C2C3CC4CC(C3)CC2C4)cc(OC)c1OC`: the AC50 is 5.01 µM.
`O=[N+]([O-])c1ccc2c(OCc3nnc(-c4ccccc4Br)o3)ncnc2c1`: the AC50 was 6.17 µM.
Take `CCCCNc1c(-c2cccc(Sc3ccc(OC)cc3)c2)nc2ccccn12`: the AC50 is 8.12 µM.
The figure for `CCCCCCSc1ccc(-c2nc3ccccn3c2NCCCC)cc1` is 6.05 µM.
Take `O=C(N/N=C/c1sc(N2CCOCC2)nc1-c1ccccc1)c1ccccc1O`: the AC50 was 6.17 µM.
On to `Cn1cnc([N+](=O)[O-])c1S(=O)(=O)Oc1ccc(Cl)cc1`, for which the AC50 was 6.4 µM.
Consider `O=C(O)c1ccc(N/N=C/C=C/c2ccccc2)cc1`, for which the AC50 was 3.72 µM.
Consider `O=C(Oc1ccc(N(C(=O)c2ccncc2)S(=O)(=O)c2ccc(Cl)cc2)cc1)c1ccncc1`, for which the AC50 is 5.85 µM.
The figure for `COc1cccc(C(=O)Nc2sc(C(C)C)cc2C(N)=O)c1OC` is 5.46 µM.
On to `CSC(=S)N/N=C/c1ccccc1`, for which the AC50 is 5.83 µM.
As for `O/N=C/c1ccccc1OCc1ccc(Cl)cc1`, the AC50 is 5.07 µM.
`CC(C)(C)n1nc(Cc2cccc3ccccc23)c2c(N)ncnc21`: the AC50 was 5.46 µM.
Take `CCCCC(CC)c1nnc(NC(=O)c2cccs2)s1` (stereo unspecified): the AC50 is 6.66 µM.
For `CN(Cc1ccc(Cl)s1)C(=O)CCl`, the AC50 is 6.37 µM.
Take `O=C(CC1(O)C(=O)Nc2cc(Cl)cc(Cl)c21)c1ccncc1` (stereo unspecified): the AC50 is > 12 µM (inactive).
Consider `CCCCCOc1ccc(CSc2n[nH]c(C)n2)cc1`, for which the AC50 is 3.81 µM.
To `CC(=O)NC(c1ccc(C)cc1)c1cc([N+](=O)[O-])c2cccnc2c1O` (stereo unspecified) belongs 8.83 µM; to `O=NN(CCc1ccncc1)c1ccc(OCc2ccccc2)cc1`, 5.81 µM; to `O=C(Nc1cccc(-c2nc3ccccc3s2)c1)c1cccs1`, 5.98 µM.
As to `CCC(C)c1ccc(NC(=S)NCCn2cc(Br)cn2)cc1` (stereo unspecified), the AC50 is 10.1 µM.
The figure for `O=C(Nc1cc(Oc2ccc(Cl)cc2)cc([N+](=O)[O-])c1)c1ccco1` is > 12 µM (inactive); for `O=C(Nc1ccccc1N1CCOCC1)c1cc2c(s1)CCCCC2` it is 6.04 µM; for `COc1ccc(-c2oc3ccccc3c2C#Cc2cncn2C)cc1` it is 4.94 µM.
Consider `CC(=O)NC(c1cccc([N+](=O)[O-])c1)c1ccc2cccnc2c1O` (stereo unspecified), for which the AC50 was 3.95 µM.
With `Oc1c(Br)cc(Br)cc1CNc1ccc(F)cc1`, the AC50 was 6.21 µM.
The figure for `CC(C)NC(=O)NC(=O)COC(=O)c1ccc([N+](=O)[O-])cc1Cl` is 12 µM; for `Nc1nonc1C(=O)NCCN=Cc1cc(Cc2ccccc2)cc(Br)c1O` it is 0.642 µM; for `CC(C)(C)c1ccc(-n2nc(C#N)c(Cl)cc2=O)cc1` it is 6.03 µM.
Take `O=C(O)c1ccccc1NC(c1ccccc1)c1ccc2cccnc2c1O` (stereo unspecified): the AC50 was 2.19 µM.
